Where two headings read alike, the source gives them in different places.
Tests used:
MCF-7 cells [1] = experiment: AlamarBlue cell proliferation assay, MCF-7; type: cell-based, human; settings: 24 hours exposure, mean of three replicates ± standard error
Protocol: (§1) Human colorectal carcinoma cell line HCT116 and human breast adenocarcinoma cell line MCF-7 were purchased from ATCC. The cells were cultured in Dulbecco's Modified Eagle's Medium (DMVEM) complemented with 10% fetal bovine serum (FBS) at 37° C. (5% CO2 and 95% humidity). 100 µg/mL streptomycin and 100 U/mL penicillin were used in the media to prevent microbial growth. Assays were performed on cells from passages 3-8.
(§2) AlamarBlue® was used to determine the drug-dose response according to the manufacturer's instruction (Thermo Fisher, Waltham, Massachusetts, United States). The samples of complexes were diluted to a working concentration in DMVEM before their exposure to the cancer cells. The cancer cells were cultivated in 96-well plates for 24 hours. The cell culture medium was then removed and the diluted test compounds were added to the wells. The well plates were incubated for 24 hours at 37° C. with 5% CO2. Subsequently, the cell culture medium was removed for the addition of 10% AlamarBlue® (diluted in DMEM) to each well. The plates were incubated for 3 hours at 37° C. protected from light. The cytotoxicity/proliferation was measured using fluorescence spectrophotometry with fluorescence being read at an excitation wavelength of 560 nm and an emission wavelength of 590 nm. To calculate the percentage difference in reduction between treated and control cells in cytotoxicity/proliferation assays, the following formula was used: […]
(§3) The prepared […] complexes 1-4 were evaluated for their inhibition of cell proliferation towards two human cancer cell lines: HCT116 and MCF-7. The cells were treated with a range of concentrations (0.3, 1, 3, 10, 100 μM) of the complexes for 24 hours. The cells viability were then assessed and half maximal inhibitory concentration (IC50) values were calculated thereafter. […] These values are about 6- to 20-fold lower than cisplatin IC50 values.

HCT116 cells = experiment: AlamarBlue cell proliferation assay, HCT116; settings: for IC50: read-out: Half maximal inhibitory concentration (IC50) HCT116, 24 hours exposure, AlamarBlue, mean of three replicates ± standard error
Protocol: as §1, §2, §3

MCF-7 cancer cell line = settings: value from cited reference; read-out: IC50 MCF-7 (literature complexes); cited from earlier work
[2] = test system: glioblastoma (U87-MG) cancer cells; settings: cited from earlier work
[3] = test system: prostate (PC-3) cancer cells; settings: PC-3 cells; cited from earlier work
HCT116 cancer cell line = settings: value from cited reference; read-out: IC50 HCT116 (literature complexes); cited from earlier work
MCF-7 cells [4] = experiment: Mitochondrial membrane potential (ΔΨm), JC-1 dye; type: cell-based, human; settings: MCF-7, 24 hours
Protocol: MCF-7 cells (1×10^4 cells per well in a 96-well plate) were treated with different concentrations of complexes, and untreated cells were used as a negative control. After treatment for 24 hours, 5,5′,6,6′-tetrachloro-1,1′,3,3′-tetraethylbenzimidazolocarbocyanine iodide (JC-1) dye (Thermo Fisher, Waltham, Massachusetts, United States) was added to each well containing the cells. The staining was performed following the protocol provided by the manufacturer. A fluorescence spectrophotometer was used to measure the fluorescence of JC-1-stained cells, and fluorescence signals in the red and green channels were recorded separately.
To examine the effect of complexes 1-4 on mitochondrial membrane potential (ΔΨm), JC-1 fluorescence dye was used to stain intact and depolarized mitochondria in MCF-7 cells following exposure to the complexes.

[5] = Solution chemistry / stability by UV-Vis spectrophotometry; type: physicochemical; settings: room temperature; complexes 2, 3 in DMSO:H2O (3:7); complex 4 in 100% DMSO and DMSO:H2O (1:1)
Protocol: The solution chemistry of complexes 2, 3, and 4 ([…], 10 mL) was investigated using ultraviolet-visible (UV-Vis) spectrophotometry at room temperature. The studied complexes are partially soluble in aqueous solution. Complexes 2 and 3 were dissolved in the mixture of DMSO:H2O (3:7), where H2O is a co-solvent of DMSO. A UV-Vis experiment was performed initially at time=0 (2 and 3) and at time=24 hours (2′ and 3′) (FIG. 26A). Furthermore, complex 4 was dissolved in 100% DMSO and a mixture of (DMSO:H2O) (1:1), where H2O is co-solvent of DMSO. Further, a UV-Vis experiment was performed initially at time=0 (4) and at time=24 hours.

[6] = read-out: Half maximal inhibitory concentration (IC50) MCF-7

N.N.[Cl][Pt][Cl] [Cisplatin, reference compound]
IC50 (MCF-7 cells [1]; [6]): 21.1 ± 1.41 µM
IC50 (HCT116 cells): 20.8 ± 0.93 µM

[C](#Cc1ccncc1)[Au][PH](CCCC[PH]([Au][C]#Cc1ccncc1)(c1ccccc1)c1ccccc1)(c1ccccc1)c1ccccc1 [[Au2(dppb)(4-ep)2]]
IC50 (MCF-7 cancer cell line): 2.8 ± 0.6 µM

COc1cccc(OC)c1[PH]([Au+][PH](c1c(OC)cccc1OC)(c1c(OC)cccc1OC)c1c(OC)cccc1OC)(c1c(OC)cccc1OC)c1c(OC)cccc1OC.F[P-](F)(F)(F)(F)F [[Au{P(2,6-dimethoxyphenyl)3}2]PF6]
fold higher cytotoxicity than cisplatin [2]: 30 fold
fold higher cytotoxicity than cisplatin [3]: 30 fold

Chlorotriphenylposphine-1,3-bis(diphenylphosphino)propanegold(I) [[Au(dppp)(PPh3)Cl]]
IC50 (HCT116 cancer cell line): 4.17 µM

[Au2(Bdbp)(Dpma)]P2F12 [Complex 4]
IC50 (MCF-7 cells [1]; listed as 4, read-out: Half maximal inhibitory concentration (IC50) MCF-7): 1.2 ± 0.32 µM
IC50 (MCF-7 cells [1]; listed as complex 4, read-out: Half maximal inhibitory concentration (IC50) MCF-7): 1.8 µM
effect on mitochondrial membrane potential (ΔΨm) at 2.5 μM (MCF-7 cells [4]): most reduction of ΔΨm
stability in solution (UV-Vis, time 0 vs 24 hours) [5]: high stability
IC50 (HCT116 cells): 0.93 µM

[Au2(Bdbp)(Dppb)]P2F12 [Complex 3]
IC50 (MCF-7 cells [1]; [6]): 1.3 ± 0.54 µM
stability in solution (UV-Vis, time 0 vs 24 hours) [5]: less stability
IC50 (HCT116 cells): 1.8 ± 0.22 µM
increase of cytotoxic effect on lengthening linker from 2 carbons (complex 1) to 4 carbons (HCT116 cells; relative to complex 1, FIG. 24A/24E vs 24C/24G (HCT116 and MCF-7)): about 4.5 fold

[Au2(Bdbp)(Dppe)]P2F12 [Complex 1]
IC50 (MCF-7 cells [1]; [6]): 7.9 µM
effect on mitochondrial membrane potential (ΔΨm) at 2.5 μM (MCF-7 cells [4]): least reduction of ΔΨm
IC50 (HCT116 cells): 8.2 µM

[Au2(Bdbp)(Dppp)]P2F12 [Complex 2]
IC50 (MCF-7 cells [1]; [6]): 2.3 ± 0.24 µM
IC50 (HCT116 cells): 3.6 ± 0.37 µM

From patent publication US20250041427A1, “DINUCLEAR PHOSPHANE GOLD(I) COMPLEXES FOR TREATING CANCER” (priority 2023, published 2025)
